Like-named read-outs stand apart in the source and are kept apart here.
What was measured:
[1] = molecular target: T1, HBV core protein (C-terminal truncated core protein, 149 amino acids of the N-terminal assembly domain, BODIPY-FL labelled) (UniProt P03146); assay: Biochemical capsid assembly assay (fluorescence quenching)
T1 construct: fused on or other part: A single cysteine added after residue 149, at position 150; It carries the BODIPY-FL maleimide label
In short: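 Fluorescence quenching of BODIPY-FL-labelled core dimers (1.0 to 2.0 μM) in 50 mM HEPES pH 7.5; compounds at 8 concentrations, 0.5 log-unit dilutions from top 100, 31.6 or 10 μM, 0.5% DMSO. Assembly started with NaCl to […]; fluorescence (ex 477/em 525 nm) read after 6 min. EC50 by non-linear regression.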

HBV (HepAD38 cells) = assay: HBV replication assay: determination of HBV DNA from the supernatants of HepAD38 cells; type: cell-based; conditions: Hepatitis B virus, 144 h, HBV DNA in HepAD38 supernatant at day 6, qPCR, read-out: Cell activity
In short: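 HepAD38 cells seeded without tetracycline and treated with half-log compound dilutions; tetracycline-treated wells serve as cell control. On day 6, supernatant HBV DNA was purified and quantified by real-time PCR against plasmid standards; EC50 from non-linear regression of relative copy numbers, three experiments in triplicate.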

[2] = assembly started with NaCl, fluorescence read after 6 min, read-out: Assembly activity
[3] = read-out: Assembly activity, assembly started with NaCl, fluorescence read after 6 min

T1 sequence (P03146 whole entry, the tested form may be a part): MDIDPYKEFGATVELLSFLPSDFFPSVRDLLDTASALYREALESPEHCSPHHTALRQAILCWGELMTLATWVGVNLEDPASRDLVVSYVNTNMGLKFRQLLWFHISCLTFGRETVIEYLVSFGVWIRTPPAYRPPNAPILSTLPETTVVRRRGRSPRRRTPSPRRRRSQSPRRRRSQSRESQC

SMILES | IC50 [1, 2] | EC50 (HBV (HepAD38 cells)) | IC50 [1, 3]
Cc1cc(F)cc2[nH]c(C(=O)N3CCn4ncc(C(=O)N(C)C5(c6ccc(C(=O)O)cc6)CC5)c4C3)cc12 [Example 54, 4-{1-[N-methyl-5-(6-fluoro-4-methyl-1H-indole-2-carbonyl)-4H,5H,6H,7H-pyrazolo[1,5-a]pyrazine-3-amido]cyclopropyl}benzoic acid] | < 5 µM | < 1 µM | –
CN(C(=O)c1[nH]nc2c1CN(C(=O)c1cc3cc(F)c(Cl)cc3[nH]1)CC2)C1(c2ccc(C(=O)O)cc2)CC1 [Example 55, 4-{1-[N-methyl-5-(6-chloro-5-fluoro-1H-indole-2-carbonyl)-2H,4H,5H,6H,7H-pyrazolo[4,3-c]pyridine-3-amido]cyclopropyl}benzoic acid] | – | 1 to 10 µM | < 5 µM
CN(C(=O)c1cnn2c1CN(C(=O)c1cc3cc(F)c(Cl)cc3[nH]1)CC2)C1(c2ncc(C(=O)O)cn2)CC1 [Example 57, 2-{1-[N-methyl-5-(6-chloro-5-fluoro-1H-indole-2-carbonyl)-4H,5H,6H,7H-pyrazolo[1,5-a]pyrazine-3-amido]cyclopropyl}pyrimidine-5-carboxylic acid] | < 5 µM | 1 to 10 µM | –
Cc1cc(F)cc2[nH]c(C(=O)N3CCn4ncc(C(=O)N(C)C5(c6ncc(C(=O)O)cn6)CC5)c4C3)cc12 [Example 60, 2-{1-[N-methyl-5-(6-fluoro-4-methyl-1H-indole-2-carbonyl)-4H,5H,6H,7H-pyrazolo[1,5-a]pyrazine-3-amido]cyclopropyl}pyrimidine-5-carboxylic acid] | < 5 µM | 1 to 10 µM | –
CN(C(=O)c1cnn2c1CN(C(=O)c1cc3ccccc3[nH]1)CC2)C1(COc2ccccc2C(=O)O)CC1 [Example 61, 2-({1-[N-methyl-5-(1H-indole-2-carbonyl)-4H,5H,6H,7H-pyrazolo[1,5-a]pyrazine-3-amido]cyclopropyl}methoxy)benzoic acid] | < 5 µM | 1 to 10 µM | –
CN(C(=O)c1cnn2c1CN(C(=O)c1cc3ccccc3[nH]1)CC2)C1(COc2cccc(C(=O)O)c2)CC1 [Example 62, 3-({1-[N-methyl-5-(1H-indole-2-carbonyl)-4H,5H,6H,7H-pyrazolo[1,5-a]pyrazine-3-amido]cyclopropyl}methoxy)benzoic acid] | < 5 µM | < 100 µM | –
CN1C(=O)c2c3c(nn2CCC12CC2)CCN(C(=O)c1cc2ccccc2[nH]1)C3 [Example 63, 4′-(1H-indole-2-carbonyl)-13′-methyl-4′, 8′,9′,13′-tetraazaspiro[cyclopropane-1,12′-tricyclo[7.5.0.0^2,]tetradecane]-1′,7′-dien-14′-one] | < 5 µM | < 1 µM | –
CN1C(=O)c2c3c(nn2CCC12CC2)CCN(C(=O)c1cc2cc(F)c(Cl)cc2[nH]1)C3 [Example 64, 4′-(6-chloro-5-fluoro-1H-indole-2-carbonyl)-13′-methyl-4′,8′,9′,13′-tetraazaspiro[cyclopropane-1,12′-tricyclo[7.5.0.0^2, Q]tetradecane]-1′,7′-dien-14′-one] | < 5 µM | < 1 µM | –
CN1C(=O)c2c3c(nn2CCC12CC2)CCN(C(=O)c1cc2c(Cl)cccc2[nH]1)C3 [Example 68, 4′-(4-chloro-1H-indole-2-carbonyl)-13′-methyl-4′, 8′,9′,13′-tetraazaspiro[cyclopropane-1,12′-tricyclo[7.5.0.0^2,7]tetradecane]-1′,7′-dien-14′-one] | < 5 µM | < 1 µM | –
CN(C(=O)c1cnn2c1CN(C(=O)c1cc3c(Cl)cc(Cl)cc3[nH]1)CC2)C1(c2ccc(C(=O)O)cc2)CC1 [Example 69, 4-{1-[N-methyl-5-(4,6-dichloro-1H-indole-2-carbonyl)-4H,5H,6H,7H-pyrazolo[1,5-a]pyrazine-3-amido]cyclopropyl}benzoic acid] | – | < 1 µM | < 5 µM
CCc1cc(F)cc2[nH]c(C(=O)N3CCn4ncc(C(=O)N(C)C5(c6ccc(C(=O)O)cc6)CC5)c4C3)cc12 [Example 74, 4-{1-[N-methyl-5-(4-ethyl-6-fluoro-1H-indole-2-carbonyl)-4H,5H,6H,7H-pyrazolo[1,5-a]pyrazine-3-amido]cyclopropyl}benzoic acid] | < 5 µM | < 1 µM | –
CN(C(=O)c1cnn2c1CN(C(=O)c1cc3c(F)cc(F)cc3[nH]1)CC2)C1(c2ccc(C(=O)O)cc2)CC1 [Example 75, 4-{1-[N-methyl-5-(4,6-difluoro-1H-indole-2-carbonyl)-4H,5H,6H,7H-pyrazolo[1,5-a]pyrazine-3-amido]cyclopropyl}benzoic acid] | < 5 µM | < 1 µM | –
CN(C(=O)c1cnn2c1CN(C(=O)c1cc3c(F)ccc(F)c3[nH]1)CC2)C1(c2ccc(C(=O)O)cc2)CC1 [Example 76, 4-{1-[N-methyl-5-(4,7-difluoro-1H-indole-2-carbonyl)-4H,5H,6H,7H-pyrazolo[1,5-a]pyrazine-3-amido]cyclopropyl}benzoic acid] | < 5 µM | < 1 µM | –
CN(C(=O)c1cnn2c1CN(C(=O)c1cc3cc(F)c(F)cc3[nH]1)CC2)C1(c2ccc(C(=O)O)cc2)CC1 [Example 77, 4-{1-[N-methyl-5-(5,6-difluoro-1H-indole-2-carbonyl)-4H,5H,6H,7H-pyrazolo[1,5-a]pyrazine-3-amido]cyclopropyl}benzoic acid] | < 5 µM | < 1 µM | –
CN(C(=O)c1cnn2c1CN(C(=O)c1cc3c(F)c(F)c(F)cc3[nH]1)CC2)C1(c2ccc(C(=O)O)cc2)CC1 [Example 78, 4-{1-[N-methyl-5-(4,5,6-trifluoro-1H-indole-2-carbonyl)-4H,5H,6H,7H-pyrazolo[1,5-a]pyrazine-3-amido]cyclopropyl}benzoic acid] | < 5 µM | < 1 µM | –
CN1C(=O)c2c3c(nn2CC12CC2)CCN(C(=O)c1cc2cc(F)ccc2[nH]1)C3 [Example 79, 12′-(5-fluoro-1H-indole-2-carbonyl)-4′-methyl-4′,7′, 8′,12′-tetraazaspiro[cyclopropane-1,5′-tricyclo[7.4.0.0^2,7]tridecane]-1′,8′-dien-3′-one] | – | < 1 µM | < 5 µM
CN(C(=O)c1cnn2c1CN(C(=O)c1cc3c(Cl)c(F)ccc3[nH]1)CC2)C1(c2ccc(C(=O)O)cc2)CC1 [Example 80, 4-{1-[N-methyl-5-(4-chloro-5-fluoro-1H-indole-2-carbonyl)-4H,5H,6H,7H-pyrazolo[1,5-a]pyrazine-3-amido]cyclopropyl}benzoic acid] | < 5 µM | < 1 µM | –
CN(C(=O)c1cnn2c1CN(C(=O)c1cc3c(Cl)cc(F)cc3[nH]1)CC2)C1(c2ccc(C(=O)O)cc2)CC1 [Example 81, 4-{1-[N-methyl-5-(4-chloro-6-fluoro-1H-indole-2-carbonyl)-4H,5H,6H,7H-pyrazolo[1,5-a]pyrazine-3-amido]cyclopropyl}benzoic acid] | < 5 µM | < 1 µM | –
Cc1cccc2[nH]c(C(=O)N3CCn4ncc(C(=O)N(C)C5(c6ccc(C(=O)O)cc6)CC5)c4C3)cc12 [Example 82, 4-{1-[N-methyl-5-(4-methyl-1H-indole-2-carbonyl)-4H,5H,6H,7H-pyrazolo[1,5-a]pyrazine-3-amido]cyclopropyl}benzoic acid] | – | < 1 µM | < 5 µM
CCc1cccc2[nH]c(C(=O)N3CCn4ncc(C(=O)N(C)C5(c6ccc(C(=O)O)cc6)CC5)c4C3)cc12 [Example 83, 4-{1-[N-methyl-5-(4-ethyl-1H-indole-2-carbonyl)-4H,5H,6H,7H-pyrazolo[1,5-a]pyrazine-3-amido]cyclopropyl}benzoic acid] | < 5 µM | < 1 µM | –
CN(C(=O)c1cnn2c1CN(C(=O)c1cc3ccccc3[nH]1)CC2)C1(c2cc(C(=O)O)on2)CC1 [Example 84] | – | < 1 µM | < 5 µM
CN1C(=O)c2c3c(nn2CC12CC2)CCN(C(=O)c1cc2c(F)c(F)ccc2[nH]1)C3 [Example 85, 12′-(4,5-difluoro-1H-indole-2-carbonyl)-4′-methyl-4′,7′,8′,12′-tetraazaspiro[cyclopropane-1,5′-tricyclo[7.4.0.0^2,7]tridecane]-1′,8′-dien-3′-one] | < 5 µM | < 1 µM | –
CCN1C(=O)c2c3c(nn2CCC12CC2)CCN(C(=O)c1cc2ccccc2[nH]1)C3 [Example 86, 13′-ethyl-4′-(1H-indole-2-carbonyl)-4′,8′,9′,13′-tetraazaspiro[cyclopropane-1,12′-tricyclo[7.5.0.0^2,7]tetradecane]-1′,7′-dien-14′-one] | < 5 µM | < 1 µM | –
CN1C(=O)c2c3c(nn2CC12CC2)CCN(C(=O)c1cc2c(Cl)c(F)ccc2[nH]1)C3 [Example 87, 12′-(4-chloro-5-fluoro-1H-indole-2-carbonyl)-4′-methyl-4′,7′,8′,12′-tetraazaspiro[cyclopropane-1,5′-tricyclo[7.4.0.0^2,7]tridecane]-1′,8′-dien-3′-one] | – | < 1 µM | < 5 µM
Cc1cc(F)cc2[nH]c(C(=O)N3CCc4nn5c(c4C3)C(=O)N(C)C3(CC3)C5)cc12 [Example 88, 12′-(6-fluoro-4-methyl-1H-indole-2-carbonyl)-4′-methyl-4′,7′,8′,12′-tetraazaspiro[cyclopropane-1,5′-tricyclo[7.4.0.0^2,7]tridecane]-1′,8′-dien-3′-one] | < 5 µM | < 1 µM | –
